Experimental data: US9302999B2, “Substituted triazoles as herbicides” (E. I. DU PONT DE NEMOURS AND COMPANY, priority 2012, dated 2016)

Assays:
Assay type in all cases: in vivo
kochia (Kochia scoparia) = experiment: Test C pre-/postemergence: kochia
Summary of the method: (§1)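 Preemergence on seeds in loam/sand, postemergence on 2–18 cm (1–4-leaf) plants in peat-based medium; compounds in non-phytotoxic solvent with surfactant. After 13–15 days in greenhouse, visual rating versus controls, 0 (no effect) to 100 (complete control).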

[1] = system: ducksalad (Heteranthera limosa); experiment: Test B flooded paddy: ducksalad; details: Flood; 250 g ai/ha; applied to paddy water at 2-leaf stage; visually evaluated after 13 to 15 days
Summary of the method: (§2)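 Response scored visually, 0–100 relative to controls, 13–15 days after the compound was applied into paddy water; plants were at the 2-leaf stage in pots kept flooded to 3 cm.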

[2] = system: sedge, umbrella (small-flower umbrella sedge Cyperus difformis); experiment: Test B flooded paddy: sedge, umbrella; details: Flood; 250 g ai/ha; applied to paddy water at 2-leaf stage; visually evaluated after 13 to 15 days
Summary of the method: as §2

[3] = system: ragweed (common ragweed, Ambrosia elation); experiment: Test C pre-/postemergence: ragweed
Summary of the method: as §1

[4] = system: velvetleaf (Abutilon theophrasti); experiment: Test C pre-/postemergence: velvetleaf
Summary of the method: as §1

[5] = system: morningglory (Ipomoea spp.); experiment: Test A pre-/postemergence: morningglory; details: for Morningglory plant response rating: visual rating on 0 to 100 scale (0 no effect, 100 complete control), approximately ten days
Summary of the method: (§3)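 Pre: directed soil spray after planting in loam + sand. Post: same formulation (non-phytotoxic solvent + surfactant) on 1–2-leaf plants, 2–10 cm. Greenhouse ~10 d; visual injury 0–100 vs untreated.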

[6] = system: crabgrass, large (large crabgrass, Digitaria sanguinalis); experiment: Test A pre-/postemergence: crabgrass, large; details: for Crabgrass, Large plant response rating: Postemergence; for Plant response rating, Crabgrass, Large: Preemergence
Summary of the method: as §3

[7] = system: foxtail, giant (giant foxtail, Setaria faberii); experiment: Test A pre-/postemergence: foxtail, giant; details: for Foxtail, Giant plant response rating: Postemergence; for Plant response rating, Foxtail, Giant: Preemergence
Summary of the method: as §3

[8] = system: nutsedge, yellow (yellow nutsedge, Cyperus esculentus); experiment: Test C pre-/postemergence: nutsedge, yellow
Summary of the method: as §1

soybean (Glycine max) = experiment: Test C pre-/postemergence: soybean
Summary of the method: as §1

[9] = Postemergence, 31 g ai/ha, scale 0 to 100 (0 no effect, 100 complete control)
[10] = Postemergence, 62 g ai/ha, scale 0 to 100 (0 no effect, 100 complete control)
[11] = Postemergence, 125 g ai/ha, scale 0 to 100, 0 no effect, 100 complete control
[12] = Postemergence, 250 g ai/ha, scale 0 to 100
[13] = Preemergence, 31 g ai/ha, scale of 0 to 100, 0 is no effect, 100 is complete control
[14] = Preemergence, 62 g ai/ha, scale of 0 to 100, 0 is no effect, 100 is complete control
[15] = Preemergence, 125 g ai/ha, scale 0 to 100, 0 no effect, 100 complete control
[16] = Preemergence, 250 g ai/ha, scale 0 to 100, 0 no effect, 100 complete control
[17] = Postemergence, 125 g ai/ha, 0 to 100 scale, 0 is no effect, 100 is complete control
[18] = Preemergence, 125 g ai/ha, 0 to 100 scale where 0 is no effect and 100 is complete control
[19] = Preemergence, 500 g ai/ha, 0 to 100 scale (0 no effect, 100 complete control)
[20] = 125 g ai/ha, 0 to 100 scale, 0 is no effect, 100 is complete control
[21] = 500 g ai/ha, visual rating on 0 to 100 scale (0 no effect, 100 complete control), approximately ten days
[22] = 125 g ai/ha, 0 to 100 scale where 0 is no effect and 100 is complete control
[23] = 500 g ai/ha, 0 to 100 scale (0 no effect, 100 complete control)

COc1nn(-c2cccc(F)c2)nc1Cc1ccnc(C(F)(F)F)c1 [Compound 139]
Plant response rating, Kochia (kochia (Kochia scoparia); [9]): 85
Plant response rating, Kochia (kochia (Kochia scoparia); [10]): 85
Plant response rating, Kochia (kochia (Kochia scoparia); [11]): 90
Plant response rating, Kochia (kochia (Kochia scoparia); [12]): 90
Plant response rating, Kochia (kochia (Kochia scoparia); [13]): 65
Plant response rating, Kochia (kochia (Kochia scoparia); [14]): 75
Plant response rating, Kochia (kochia (Kochia scoparia); [15]): 90
Plant response rating, Kochia (kochia (Kochia scoparia); [16]): 100
Plant response rating, Ducksalad (0 to 100 scale, 0 is no effect, 100 is complete control) [1]: 70
Plant response rating, Sedge, Umbrella (0 to 100 scale, 0 is no effect, 100 is complete control) [2]: 80
Plant response rating, Ragweed [3, 10]: 40
Plant response rating, Ragweed [3, 11]: 45
Plant response rating, Ragweed [3, 12]: 75
Plant response rating, Ragweed [3, 13]: 0
Plant response rating, Ragweed [3, 14]: 0
Plant response rating, Ragweed [3, 15]: 30
Plant response rating, Ragweed [3, 16]: 55
Plant response rating, Velvetleaf [4, 9]: 20
Plant response rating, Velvetleaf [4, 10]: 35
Plant response rating, Velvetleaf [4, 11]: 70
Plant response rating, Velvetleaf [4, 12]: 75
Plant response rating, Velvetleaf [4, 13]: 0
Plant response rating, Velvetleaf [4, 14]: 10
Plant response rating, Velvetleaf [4, 15]: 40
Plant response rating, Velvetleaf [4, 16]: 40
Plant response rating, Morningglory [5, 17]: 80
Morningglory plant response rating ([5]; Postemergence, 500 g ai/ha): 100
Plant response rating, Morningglory [5, 18]: 50
Plant response rating, Morningglory [5, 19]: 70
Crabgrass, Large plant response rating [6, 20]: 90
Crabgrass, Large plant response rating [6, 21]: 90
Plant response rating, Crabgrass, Large [6, 22]: 100
Plant response rating, Crabgrass, Large [6, 23]: 100
Foxtail, Giant plant response rating [7, 20]: 90
Foxtail, Giant plant response rating [7, 21]: 100
Plant response rating, Foxtail, Giant [7, 22]: 100
Plant response rating, Foxtail, Giant [7, 23]: 100
Plant response rating, Nutsedge, Yellow [8, 9]: 10
Plant response rating, Nutsedge, Yellow [8, 10]: 10
Plant response rating, Nutsedge, Yellow [8, 11]: 10
Plant response rating, Nutsedge, Yellow [8, 12]: 25
Plant response rating, Nutsedge, Yellow [8, 13]: 0
Plant response rating, Nutsedge, Yellow [8, 14]: 0
Plant response rating, Nutsedge, Yellow [8, 15]: 0
Plant response rating, Nutsedge, Yellow [8, 16]: 5
Plant response rating, Soybean (soybean (Glycine max); [9]): 40
Plant response rating, Soybean (soybean (Glycine max); [10]): 40
Plant response rating, Soybean (soybean (Glycine max); [11]): 45
Plant response rating, Soybean (soybean (Glycine max); [12]): 45
Plant response rating, Soybean (soybean (Glycine max); [13]): 5
Plant response rating, Soybean (soybean (Glycine max); [14]): 15
Plant response rating, Soybean (soybean (Glycine max); [15]): 25
Plant response rating, Soybean (soybean (Glycine max); [16]): 25

Cc1nn(-c2ccnc(Cl)c2)nc1Cc1ccnc(C(F)(F)F)c1 [Compound 141]
Plant response rating, Kochia (kochia (Kochia scoparia); [9]): 85
Plant response rating, Kochia (kochia (Kochia scoparia); [10]): 90
Plant response rating, Kochia (kochia (Kochia scoparia); [11]): 90
Plant response rating, Kochia (kochia (Kochia scoparia); [12]): 90
Plant response rating, Ducksalad (0 to 100 scale, 0 is no effect, 100 is complete control) [1]: 85
Plant response rating, Sedge, Umbrella (0 to 100 scale, 0 is no effect, 100 is complete control) [2]: 85
Plant response rating, Ragweed [3, 9]: 60
Plant response rating, Ragweed [3, 10]: 70
Plant response rating, Ragweed [3, 12]: 85
Plant response rating, Velvetleaf [4, 9]: 40
Plant response rating, Velvetleaf [4, 10]: 55
Plant response rating, Velvetleaf [4, 11]: 60
Plant response rating, Velvetleaf [4, 12]: 60
Plant response rating, Morningglory [5, 17]: 80
Morningglory plant response rating ([5]; Postemergence, 500 g ai/ha): 90
Plant response rating, Morningglory [5, 18]: 30
Plant response rating, Morningglory [5, 19]: 60
Crabgrass, Large plant response rating [6, 20]: 90
Crabgrass, Large plant response rating [6, 21]: 90
Plant response rating, Crabgrass, Large [6, 22]: 100
Plant response rating, Crabgrass, Large [6, 23]: 100
Foxtail, Giant plant response rating [7, 20]: 90
Foxtail, Giant plant response rating [7, 21]: 90
Plant response rating, Foxtail, Giant [7, 22]: 100
Plant response rating, Foxtail, Giant [7, 23]: 100
Plant response rating, Nutsedge, Yellow [8, 9]: 0
Plant response rating, Nutsedge, Yellow [8, 10]: 10
Plant response rating, Nutsedge, Yellow [8, 11]: 15
Plant response rating, Nutsedge, Yellow [8, 12]: 15
Plant response rating, Soybean (soybean (Glycine max); [9]): 40
Plant response rating, Soybean (soybean (Glycine max); [10]): 55
Plant response rating, Soybean (soybean (Glycine max); [11]): 55
Plant response rating, Soybean (soybean (Glycine max); [12]): 65

Cc1nn(-c2ccc(F)cc2F)nc1Oc1ccnc(C(F)(F)F)c1 [Compound 146]
Plant response rating, Kochia (kochia (Kochia scoparia); [13]): 30
Plant response rating, Kochia (kochia (Kochia scoparia); [14]): 55
Plant response rating, Kochia (kochia (Kochia scoparia); [15]): 85
Plant response rating, Kochia (kochia (Kochia scoparia); [16]): 85
Plant response rating, Ducksalad (0 to 100 scale, 0 is no effect, 100 is complete control) [1]: 60
Plant response rating, Sedge, Umbrella (0 to 100 scale, 0 is no effect, 100 is complete control) [2]: 80
Plant response rating, Ragweed [3, 13]: 0
Plant response rating, Ragweed [3, 14]: 0
Plant response rating, Ragweed [3, 15]: 45
Plant response rating, Ragweed [3, 16]: 45
Plant response rating, Velvetleaf [4, 13]: 0
Plant response rating, Velvetleaf [4, 14]: 5
Plant response rating, Velvetleaf [4, 15]: 15
Plant response rating, Velvetleaf [4, 16]: 60
Plant response rating, Morningglory [5, 17]: 90
Morningglory plant response rating ([5]; Postemergence, 500 g ai/ha): 90
Plant response rating, Morningglory [5, 18]: 10
Plant response rating, Morningglory [5, 19]: 60
Crabgrass, Large plant response rating [6, 20]: 80
Crabgrass, Large plant response rating [6, 21]: 90
Plant response rating, Crabgrass, Large [6, 22]: 100
Plant response rating, Crabgrass, Large [6, 23]: 100
Foxtail, Giant plant response rating [7, 20]: 80
Foxtail, Giant plant response rating [7, 21]: 90
Plant response rating, Foxtail, Giant [7, 22]: 100
Plant response rating, Foxtail, Giant [7, 23]: 100
Plant response rating, Nutsedge, Yellow [8, 13]: 0
Plant response rating, Nutsedge, Yellow [8, 14]: 0
Plant response rating, Nutsedge, Yellow [8, 16]: 10
Plant response rating, Soybean (soybean (Glycine max); [13]): 10
Plant response rating, Soybean (soybean (Glycine max); [14]): 15
Plant response rating, Soybean (soybean (Glycine max); [16]): 40

Cc1nn(-c2ccc(C(F)(F)F)c(F)c2)nc1Oc1ccnc(C(F)(F)F)c1 [Compound 148]
Plant response rating, Kochia (kochia (Kochia scoparia); [9]): 80
Plant response rating, Kochia (kochia (Kochia scoparia); [10]): 85
Plant response rating, Kochia (kochia (Kochia scoparia); [11]): 85
Plant response rating, Kochia (kochia (Kochia scoparia); [12]): 95
Plant response rating, Kochia (kochia (Kochia scoparia); [13]): 40
Plant response rating, Kochia (kochia (Kochia scoparia); [14]): 40
Plant response rating, Kochia (kochia (Kochia scoparia); [15]): 90
Plant response rating, Kochia (kochia (Kochia scoparia); [16]): 95
Plant response rating, Ducksalad (0 to 100 scale, 0 is no effect, 100 is complete control) [1]: 85
Plant response rating, Sedge, Umbrella (0 to 100 scale, 0 is no effect, 100 is complete control) [2]: 85
Plant response rating, Ragweed [3, 9]: 65
Plant response rating, Ragweed [3, 10]: 85
Plant response rating, Ragweed [3, 11]: 85
Plant response rating, Ragweed [3, 12]: 85
Plant response rating, Ragweed [3, 13]: 15
Plant response rating, Ragweed [3, 14]: 45
Plant response rating, Ragweed [3, 15]: 55
Plant response rating, Ragweed [3, 16]: 70
Plant response rating, Velvetleaf [4, 9]: 50
Plant response rating, Velvetleaf [4, 10]: 50
Plant response rating, Velvetleaf [4, 11]: 80
Plant response rating, Velvetleaf [4, 12]: 85
Plant response rating, Velvetleaf [4, 13]: 15
Plant response rating, Velvetleaf [4, 14]: 55
Plant response rating, Velvetleaf [4, 15]: 70
Plant response rating, Velvetleaf [4, 16]: 80
Plant response rating, Morningglory [5, 17]: 80
Morningglory plant response rating ([5]; Postemergence, 500 g ai/ha): 90
Plant response rating, Morningglory [5, 18]: 40
Plant response rating, Morningglory [5, 19]: 90
Crabgrass, Large plant response rating [6, 20]: 80
Crabgrass, Large plant response rating [6, 21]: 80
Plant response rating, Crabgrass, Large [6, 22]: 100
Plant response rating, Crabgrass, Large [6, 23]: 100
Foxtail, Giant plant response rating [7, 20]: 80
Foxtail, Giant plant response rating [7, 21]: 80
Plant response rating, Foxtail, Giant [7, 22]: 100
Plant response rating, Foxtail, Giant [7, 23]: 100
Plant response rating, Nutsedge, Yellow [8, 9]: 10
Plant response rating, Nutsedge, Yellow [8, 10]: 10
Plant response rating, Nutsedge, Yellow [8, 11]: 15
Plant response rating, Nutsedge, Yellow [8, 12]: 15
Plant response rating, Nutsedge, Yellow [8, 13]: 0
Plant response rating, Nutsedge, Yellow [8, 14]: 5
Plant response rating, Nutsedge, Yellow [8, 15]: 5
Plant response rating, Soybean (soybean (Glycine max); [9]): 45
Plant response rating, Soybean (soybean (Glycine max); [10]): 45
Plant response rating, Soybean (soybean (Glycine max); [11]): 80
Plant response rating, Soybean (soybean (Glycine max); [12]): 90
Plant response rating, Soybean (soybean (Glycine max); [13]): 5
Plant response rating, Soybean (soybean (Glycine max); [14]): 10
Plant response rating, Soybean (soybean (Glycine max); [15]): 20
Plant response rating, Soybean (soybean (Glycine max); [16]): 30
